Entries after “also recorded” stand apart in the source; their conditions may differ. Where two headings read alike, the source gives them in different places.
Assays:
[1] = Stability of DNA in water and PBS (TEM); assay type: physicochemical; conditions: [DNA] 6 μg/mL
Description: Stability of DNA in water and PBS. DNA was prepared in PBS and diluted in H2O and then imaged. Final [DNA]=6 μg/mL.

[2] = DNA degradation in 10% FBS/PBS (agarose gel); assay type: physicochemical; conditions: 37° C., 0 to 48 h, [DNA] 100 μg/mL
Description: DNA Degradation in 10% FBS/PBS. A 1% (w/v) agarose gel in 1×Tris Acetate EDTA (TAE) containing 1 μg/mL ethidium bromide was used to characterize the degradation of DNA in 10% FBS/PBS over 48 hours. DNA was incubated with serum-containing PBS at 37° C. over time. Samples were stored in −20° C. to stop enzymatic degradation from nucleases at each time point. The concentration of DNA=100 μg/mL. The gel was run at 100 V for 40 minutes and DNA was imaged on a UV transilluminator (Fotodyne, Heartland, Wis.).
DNA Degradation in 10% FBS/PBS. To determine the stability of the DNA to serum exposure, DNA (100 μg/mL) was incubated with serum-containing PBS at 37° C. over a time period of 0 to 48 h. Samples were stored in −20° C. to stop enzymatic degradation from nucleases at each time point. […] It is likely that the nucleases in the serum-containing media are contributing to the degradation of DNA. It is possible to infer a delayed release of DOX due to this degradation of DNA overtime in 10% FBS.

[3] = Pharmacokinetics in EL4-challenged C57BL/6 mice; assay type: in vivo
Description: Pharmacokinetics. […] Blood samples were collected from the saphenous vein of the mice at each time point, spun down in a serum collection tube, and the resultant supernatant was analyzed in acidified alcohol for DOX fluorescence using the Multi-Mode reader.
The mice were 6-8-week-old female mice.

[4] = Acute toxicity survival in C57BL/6 mice; conditions: 40 mg/kg dose, n=7
[5] = Titration of DOX, DNA and DOX/DNA; assay type: physicochemical
Description: Titration of DOX, DNA, and DOX/DNA using a weak base. DOX, DNA or DOX/DNA were made in water at an initial volume of 1 mL. DOX equiv. at 600 μg/mL. The pH was then brought down below 2 with 1 M HCl, then the pH was adjusted higher using small volumes (100 μL or 20 μL) of 0.1 M NaOH.

EL4 cells [6] = test: Endocytosis inhibition, EL4 cellular uptake; assay type: cell-based; conditions: inhibitors CPZ, Filipin III, EIPA, NaN3, PS2 or 4° C., 1 hour treatment
Description: Endocytosis Inhibition. EL4 DOX uptake from DOX or DOX/DNA treatment after exposure to inhibitors NaN3 (120 mM), PS2 (12 μg/mL), Filipin III (5 μg/mL), CPZ (20 μM), EIPA […], or 4° C. was measured using flow cytometry or spectrofluorimetry. Briefly, cells were primed for 15 minutes with the inhibitors before being treated for 1 hour with DOX or DOX/DNA. Cells containing DOX or DOX/DNA were counted with the flow cytometer using yellow fluorescence, and cells containing DOX/DNA were counted using spectrofluorimetry. Fluorescence was measured using a Guava® easyCyte™ Flow Cytometer (Millipore Sigma, Burlington, Mass.) or the Multi-Mode reader (Biotek Instruments, Winooski, Vt.).
Endocytosis inhibition and the effect on DOX/DNA and DOX uptake. The effect of inhibitors CPZ (20 μM), Fillipin III […], EIPA (20 μM), and various combinations thereof, or 4° C. on EL4 cellular uptake was evaluated for DOX/DNA (see FIG. 22). Chlorpromazine (CPZ) is a clathrin-dependent pathway inhibitor. […] The concentrations chosen for the assay were determined using a dose-response assay for each inhibitor.
DOX uptake by EL4 cells was tested with inhibitors: NaN3 (120 mM), PS2 (12 μg/mL), Filipin III (5 μg/mL), EIPA (20 μM), and 4° C. Uptake was measured using flow cytometry. […] Cells containing DOX were counted with the flow cytometer using yellow fluorescence.

[7] = Complete blood count and liver enzyme panel; assay type: in vivo; conditions: 20 mg/kg DOX or DOX equiv., tail vein, 24 h p.i., C57BL/6 mice, n=3
Description: Hematotoxicity and Liver Enzyme Panel. The mice used in this study were 6-12 week-old female C57BL/6/027 mice (Charles River Laboratories, Wilmington, Mass., USA). The mice were administered treatment via tail vein injection. After 24 h, complete blood count (CBC), and liver enzyme levels were measured. Blood for CBC was collected by saphenous vein collection, mixed with EDTA, and analyzed with a hematology analyzer for white blood cells (WBC), red blood cells (RBC), hemoglobin (Hgb), platelets (Plt) and hematocrit (HCT). For the liver enzyme panel, serum was isolated from blood and sent to IDEXX Laboratories, Inc. (Westbrook, Me.) for alkaline phosphatase (ALP), aspartate aminotransferase (AST), alanine aminotransferase (ALT), and total bilirubin analysis.
Complete blood count and liver enzyme panel of DOX/DNA and DOX. A complete blood count and liver enzyme panel were conducted in C57BL/6 mice treated with 20 mg/kg DOX, 20 mg/kg DOX equiv. of DOX/DNA, PBS, or 120 mg/kg DNA, n=3. […] After 24 h p.i., complete blood count (CBC), and liver enzyme levels were measured. Blood was collected by saphenous vein collection, mixed with EDTA, and analyzed with a hematology analyzer for white blood cells (WBC), red blood cells (RBC), hemoglobin (Hgb), platelets (Plt) and hematocrit (HCT). […]

EL4 cells [8] = test: EL4 cytotoxicity, MTT assay; assay type: cell-based
Description: EL4 Cytotoxicity. EL4 cells (ATCC, Rockville, Md.) were plated at 10 k cells per well in a 96-well plate. The plated cells were treated in triplicate for 24, 48, or 72 hours with a range of concentrations of 0.001 μg/mL DOX or DOX equivalent to 10 μg/mL, followed by cellular viability analysis via MTT assay. Cells were incubated at 37° C., 5% CO2, and 100% humidity.
EL4 cells were treated in triplicate for 24, 48, and 72 hours with a range of concentrations, followed by cellular viability analysis via an MTT assay.

Stability in water or PBS [1]	Substance	Degradation in serum [2]	Blood circulation residence half-life T1/2 ([3]; 20 mg/kg DOX or DOX equiv. i.v., n=3)	Time of absorption by the tissue ([3]; 20 mg/kg i.v.)	Acute toxicity [4]	pKa (amine) [5]	pKa (estimated) [5]	pKa (phenol) [5]	Cellular uptake pathway (EL4 cells [6])	Effect on circulating blood cells and liver enzymes [7]	IC50 (EL4 cells [8]; 24 h incubation)	IC50 (EL4 cells [8]; 24 h incubation, read-out: IC50)	IC50 (EL4 cells [8]; 48 h incubation)	IC50 (EL4 cells [8]; 72 h incubation)
largely stable	Deoxyribonucleic acid [DNA]	degraded serum in a time dependent manner; also recorded: degraded overtime												
	Doxorubicin		3 min	~15 min	acute toxicity (cardiac arrest)	8.46	9.46	7.34	primarily via membrane fusion	greater impact	0.313 mg/L	0.576 µM	0.093 mg/L	0.048 mg/L
